Measured values from patent publication US6824760B2, “Imaging agents, precursors thereof and methods of manufacture” (priority 2001, dated 2004).
Where two headings read alike, the source gives them in different places.

Columns and labels:
[1] = tested on: Fischer 344 tumor-bearing rats; conditions: for Blood / Bone / Heart / Intestine / Kidney / Liver / Lung / Muscle / Spleen / Stomach / Thyroid / Tumor / Tumor/Blood / Tumor/Lung / Tumor/Muscle: breast tumor-bearing Fischer 344 rats, 10 μCi/rat i.v.; for Tumor/Blood / Tumor/Lung / Tumor/Muscle: ratio
Method: Biodistribution studies were conducted at 30 min, 2 and 4 hours.

[2] = tested on: breast cancer cells, cell line 13762; test: In vitro cellular uptake assay; format: cell-based
Method: After 0.5-4 hours incubation, the cells were washed with phosphate buffered saline 3 times and followed by trypsin to loosen the cells. The cells were counted by a gamma counter.

[3] = tumor-bearing rats, 30 min, 2 and 4 hours

Compound: CC(N)(Cc1ccc(OCCC[18F])cc1)C(=O)O (stereo not drawn) [^18F-FPAMT, 3-^18F-fluoropropyl-α-methyltyrosine]
- Blood ([1]; 30 min): 0.638 ± 0.021 % of injected dose per gram of tissue weight
- Bone ([1]; 30 min): 0.447 ± 0.045 % of injected dose per gram of tissue weight
- Heart ([1]; 30 min): 0.445 ± 0.019 % of injected dose per gram of tissue weight
- Intestine ([1]; 30 min): 0.838 ± 0.058 % of injected dose per gram of tissue weight
- Kidney ([1]; 30 min): 8.060 ± 0.101 % of injected dose per gram of tissue weight
- Liver ([1]; 30 min): 6.542 ± 1.142 % of injected dose per gram of tissue weight
- Lung ([1]; 30 min): 4.812 ± 0.457 % of injected dose per gram of tissue weight
- Muscle ([1]; 30 min): 0.318 ± 0.043 % of injected dose per gram of tissue weight
- Spleen ([1]; 30 min): 0.404 ± 0.023 % of injected dose per gram of tissue weight
- Stomach ([1]; 30 min): 0.440 ± 0.052 % of injected dose per gram of tissue weight
- Thyroid ([1]; 30 min): 0.730 ± 0.126 % of injected dose per gram of tissue weight
- Tumor ([1]; 30 min): 0.454 ± 0.016 % of injected dose per gram of tissue weight
- Blood ([1]; 2 h): 0.298 ± 0.032 % of injected dose per gram of tissue weight
- Bone ([1]; 2 h): 1.256 ± 0.117 % of injected dose per gram of tissue weight
- Heart ([1]; 2 h): 0.219 ± 0.024 % of injected dose per gram of tissue weight
- Intestine ([1]; 2 h): 0.627 ± 0.209 % of injected dose per gram of tissue weight
- Kidney ([1]; 2 h): 7.721 ± 1.027 % of injected dose per gram of tissue weight
- Liver ([1]; 2 h): 3.587 ± 0.500 % of injected dose per gram of tissue weight
- Lung ([1]; 2 h): 0.541 ± 0.084 % of injected dose per gram of tissue weight
- Muscle ([1]; 2 h): 0.154 ± 0.017 % of injected dose per gram of tissue weight
- Spleen ([1]; 2 h): 0.215 ± 0.029 % of injected dose per gram of tissue weight
- Stomach ([1]; 2 h): 0.190 ± 0.024 % of injected dose per gram of tissue weight
- Thyroid ([1]; 2 h): 0.860 ± 0.045 % of injected dose per gram of tissue weight
- Tumor ([1]; 2 h): 0.312 ± 0.024 % of injected dose per gram of tissue weight
- Blood ([1]; 4 h): 0.081 ± 0.007 % of injected dose per gram of tissue weight
- Bone ([1]; 4 h): 1.502 ± 0.214 % of injected dose per gram of tissue weight
- Heart ([1]; 4 h): 0.054 ± 0.007 % of injected dose per gram of tissue weight
- Intestine ([1]; 4 h): 0.148 ± 0.015 % of injected dose per gram of tissue weight
- Kidney ([1]; 4 h): 1.467 ± 0.236 % of injected dose per gram of tissue weight
- Liver ([1]; 4 h): 0.930 ± 0.049 % of injected dose per gram of tissue weight
- Lung ([1]; 4 h): 0.105 ± 0.008 % of injected dose per gram of tissue weight
- Muscle ([1]; 4 h): 0.055 ± 0.012 % of injected dose per gram of tissue weight
- Spleen ([1]; 4 h): 0.067 ± 0.009 % of injected dose per gram of tissue weight
- Stomach ([1]; 4 h): 0.070 ± 0.002 % of injected dose per gram of tissue weight
- Thyroid ([1]; 4 h): 1.220 ± 0.260 % of injected dose per gram of tissue weight
- Tumor ([1]; 4 h): 0.069 ± 0.003 % of injected dose per gram of tissue weight
- Tumor/Blood ([1]; 30 min): 0.712 ± 0.013
- Tumor/Lung ([1]; 30 min): 0.095 ± 0.006
- Tumor/Muscle ([1]; 30 min): 1.464 ± 0.138
- Tumor/Blood ([1]; 2 h): 1.079 ± 0.171
- Tumor/Lung ([1]; 2 h): 0.599 ± 0.079
- Tumor/Muscle ([1]; 2 h): 2.057 ± 0.176
- Tumor/Blood ([1]; 4 h): 0.853 ± 0.036
- Tumor/Lung ([1]; 4 h): 0.658 ± 0.081
- Tumor/Muscle ([1]; 4 h): 1.322 ± 0.341
- Tumor/blood ratio as a function of time [1, 3]: increased as a function of time
- Tumor/muscle ratio as a function of time [1, 3]: increased as a function of time
- bone uptake (suggesting in vivo defluorination) ([1]; tumor-bearing rats, 2 hours): increased bone uptake
- cellular uptake compared with ^18F-FDG ([2]; breast cancer cell line 13762, 0.5 and 2 hours incubation): slightly higher uptake than ^18F-FDG
- cellular uptake as a function of time ([2]; breast cancer cell line 13762, 2 μCi, 0.5-4 hours incubation): increased uptake
